Data as given in patent publication US20060121449A1, “Method for selection of compounds which inhibit clonal cell growth and use thereof” (priority 2002, published 2006).
“Also recorded” adds a separate entry of the source. Like-named read-outs stand apart in the source and are kept apart here.

Columns and labels:
[1] = tested on: polyoma virus transformed BHK21/c13 cells, clone S100T1; test: Clonal test: clonal growth of S100T1 cells in soft agar (Exp 2, 4, 6, 15, 16); assay type: cell-based, hamster; conditions: for Significance: Exp 15, 5th day, ” = as line above; for Clonal growth: Exp 15, plate read the 5th day
Method: The clonal test comprises: • 1. seeding cells in soft agar optionally containing growth factor(s); • 2. handling or incubation of special gels (e.g. ultra low gelling temperature agarose), including the production of cell density gradients. • 3. incubating in suitable temperature and atmosphere and; • 4. regular monitoring of the cells and development of clones.
The clonal test can be directed in fluid medium or in soft agar medium. Usually only transformed cells will form clones in soft agar.
After seeding and mixing, the tubes were placed in the refrigerator for about 1 hour to consolidate the ultra low melting point agarose.
120000 S100T1 cells of a polyoma virus transformed BHK21/c13 cell line, were seeded in 1 ml soft agar medium in Falcon 50 ml centrifuge tubes. […] On the top of the agar layer 0.5 ml fluid medium was added.
Agar cultures were prepared in wells of 24 well Falcon tissue culture plate. […] Insulin (Actrapid, Novo) was added in a concentration of 0.1 i.u./ml to BHK21/c13 cell cultures only.
The cells were all single cells. Each well received 32000 cells (Table 4). Plate: 24 wells Falcon tissue culture plate received a bottom layer composed as in Table 3:
The cells were all single cells.
The wells contained two layers, each of 0.3 ml agar.
The agarose was added to double distilled water and solved by heating in micro oven.

[2] = tested on: polyoma virus transformed BHK21/c13 cells, line S100T1; test: Collocation inhibition test: clonal growth in sparsely and densely seeded areas of a cell density gradient of S100T1 cells in soft agar (Exp 13, 17, 19-26); conditions: for Clonal growth read on the 3rd day after seeding / Clonal growth read on the 6th day after seeding: Exp 17; for Inhibition of clonal growth of sparsely seeded cells: 117000 S100T1 cells/well;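 as to all read-outs here: soft agar cultures in 24-well plates with a cell density gradient in the top layer, compounds applied from DMSO stocks, clonal growth scored in sparse versus dense areas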
[3] = High conc., μM in wells: No 1 (4-OH—OPB) 20, 2 (Colchicine) 0.1, 3 (Diphenylhydantoin) 100, 4 (Podophyllotoxin) 0.3, 5 (Piroxicam) 50, 6 (Diclofenak) 100
[4] = Low conc., μM in wells: No 1 (4-OH—OPB) 2, 2 (Colchicine) 0.01, 3 (Diphenylhydantoin) 10, 4 (Podophyllotoxin) 0.03, 5 (Piroxicam) 5, 6 (Diclofenak) 10, 7 (Ibuprofen) 100, 8 (Naproxen) 50, 9 (Acetylsalicylic acid) 100
[5] = High conc., μM in wells: No 1 (4-OH—OPB) 20, 2 (Colchicine) 0.1, 3 (Diphenylhydantoin) 100, 4 (Podophyllotoxin) 0.3, 5 (Piroxicam) 50, 6 (Diclofenak) 100, 7 (Ibuprofen) 1000, 8 (Naproxen) 500, 9 (Acetylsalicylic acid) 1000
[6] = High: #1 Colchicine 1, #2 Podophyllotoxin 3, #3 Etoposide 200, #4 4-OH—OPB 6.7 μM in wells, #5 DMSO 29.2 μl
[7] = Low: #1 Colchicine 0.1, #2 Podophyllotoxin 0.3, #3 Etoposide 20, #4 4-OH—OPB 0.67 μM in wells, #5 DMSO 1.16 μl
[8] = Medium: #1 Colchicine 0.3, #2 Podophyllotoxin 0.9, #3 Etoposide 60, #4 4-OH—OPB 2 μM in wells, #5 DMSO 6.8 μl
[9] = Experiment 23, A (area with high cell density), High concentration, 48 hours
[10] = Experiment 23, A (area with high cell density), Low concentration, 48 hours
[11] = Experiment 23, A (area with high cell density), Medium concentration, 48 hours
[12] = Experiment 23, B (area with low cell density), High concentration, 48 hours
[13] = Experiment 23, B (area with low cell density), Low concentration, 48 hours
[14] = Experiment 23, B (area with low cell density), Medium concentration, 48 hours
[15] = Summary Table 3 of analogue tests (experiments 22-25), H (high cell density), High concentration
[16] = Summary Table 3 of analogue tests (experiments 22-25), H (high cell density), Low concentration
[17] = Summary Table 3 of analogue tests (experiments 22-25), H (high cell density), Medium concentration
[18] = Summary Table 3 of analogue tests (experiments 22-25), L (low cell density), High concentration
[19] = Summary Table 3 of analogue tests (experiments 22-25), L (low cell density), Low concentration
[20] = Summary Table 3 of analogue tests (experiments 22-25), L (low cell density), Medium concentration
[21] = 4-OH-OPB analogues, S100T1 in soft agar, high concentration
[22] = 4-OH-OPB analogues, S100T1 in soft agar, low concentration
[23] = 4-OH-OPB analogues, S100T1 in soft agar, medium concentration
[24] = sparsely seeded areas while densely seeded areas of the same culture showed significant growth
[25] = Experiment 22, H: area with high cell density, High concentration
[26] = Experiment 22, H: area with high cell density, Low concentration
[27] = Experiment 22, H: area with high cell density, Medium concentration
[28] = Experiment 22, L: area with low cell density, Low concentration
[29] = Experiment 22, L: area with low cell density, Medium concentration
[30] = Experiment 22, L: area with low cell density, High concentration

| SMILES | Significance [1, 3] | Significance [1, 4] | Clonal growth [1, 5] | Clonal growth [1, 4] | Clonal growth read on the 3rd day after seeding [2, 6] | Clonal growth read on the 6th day after seeding [2, 7] | Clonal growth read on the 3rd day after seeding [2, 8] | Clonal growth read on the 6th day after seeding [2, 8] | Clonal growth [2, 15] | Clonal growth [2, 16] | Clonal growth [2, 17] | Clonal growth [2, 18] | Clonal growth [2, 19] | Clonal growth [2, 20] | Clonal growth, H: high density area of cell gradient, High [2, 21] | Clonal growth, L: low density area of cell gradient, High [2, 21] | Clonal growth, H: high density area of cell gradient, Low [2, 22] | Clonal growth, L: low density area of cell gradient, Low [2, 22] | Clonal growth, H: high density area of cell gradient, Medium [2, 23] | Clonal growth, L: low density area of cell gradient, Medium [2, 23] | also measured |
| --- | --- | --- | --- | --- | --- | --- | --- | --- | --- | --- | --- | --- | --- | --- | --- | --- | --- | --- | --- | --- | --- |
| Oc1ccc(N=Nc2ccccc2)cc1 [#1, p-hydroxy-azobenzene] | yes | yes | − | − | − | + | ++ | + | +(+) | +++ | +++ | +− | ++ | ++ |  |  |  |  |  |  | Clonal growth, H: high density area of cell gradient, Low [2]: +++; Clonal growth, H: high density area of cell gradient, Medium [2]: +++; Clonal growth, L: low density area of cell gradient, High [2]: +−; Clonal growth, L: low density area of cell gradient, Low [2]: ++; Clonal growth, L: low density area of cell gradient, Medium [2]: ++; Clonal inhibition by 4-OH-OPB analogues, summary of Exp 22-25 [2]: complete inhibition of growth in sparsely seeded areas; Clonal growth read on the 3rd day after seeding [2, 7]: ++; Clonal growth [2, 9]: +(+); Clonal growth [2, 10]: +++; Clonal growth [2, 11]: +++; Clonal growth [2, 12]: +−; Clonal growth [2, 13]: ++; Clonal growth [2, 14]: ++ |
| CCCCC(O)(C(=O)Nc1ccccc1)C(=O)Nc1ccc(O)cc1 (stereo not shown) [#2, 2-Butyl-2-hydroxy-N-(4-hydroxy-phenyl)-N′-phenyl malonamide] | no | no |  | ++ |  | + |  | (+ | ++ | ++(+) | ++ | − | ++ | ++ | ++ | − | ++(+) | ++ | ++ | ++ | Clonal growth [2, 9]: ++; Clonal growth [2, 10]: ++(+); Clonal growth [2, 11]: ++; Clonal growth [2, 12]: −; Clonal growth [2, 13]: ++; Clonal growth [2, 14]: ++; Clonal inhibition by 4-OH-OPB analogues, summary of Exp 22-25 [2, 24]: complete inhibition of growth in sparsely seeded areas |
| CCCCC(=O)C(=O)Nc1ccccc1 [#3, 2-oxo-hexanoic acid phenylamide] | ” | ” |  | ++ | (+) | + | (+) |  | ++ | ++(+) | ++(+) | ++ | ++(+) | ++(+) | ++ | ++ | ++(+) | ++(+) | ++(+) | ++(+) | Clonal growth read on the 6th day after seeding [2, 6]: −; Effect on growth ([2]; Exp 23, 180000 S100T1 cells/well): did not show significant growth inhibition at all; Clonal growth [2, 9]: ++; Clonal growth [2, 10]: ++(+); Clonal growth [2, 11]: ++(+); Clonal growth [2, 12]: ++; Clonal growth [2, 13]: ++(+); Clonal growth [2, 14]: ++(+) |
| CCCCC(C(=O)Nc1ccccc1)C(=O)Nc1ccc(O)cc1 (stereo not shown) [#4, 2-Butyl-N-(4-hydroxy-phenyl)-N′-phenylmalonamide] | probably | ” |  |  | − | + | − | ((+)) | ++ | ++ | ++ |  | ++ | ++ | ++ | ((+)) | ++ | ++ | ++ | ++ | Clonal growth read on the 6th day after seeding [2, 6]: ((+)); Clonal growth read on the 3rd day after seeding [2, 7]: +; Inhibition of clonal growth of sparsely seeded cells ([2]; Exp 22): smaller effect; also recorded: showed an effect, but even higher concentration was needed than for #6; Clonal growth [2, 25]: ++; Clonal growth [2, 26]: ++; Clonal growth [2, 27]: ++; Clonal growth [2, 28]: ++; Clonal growth [2, 29]: ++ |
| O=C1N(c2ccccc2)N(c2ccccc2)C(=O)C1(O)CC[S+]([O-])c1ccccc1 (stereo not shown) [#6, 1,2-diphenyl-4-hydroxy-4-[2-(phenylsulfinyl)ethyl]-3,5-pyrazolidinedione] | ” | probably* | ++ |  |  |  |  |  | ++ | ++ | ++ | − | ++ |  | ++ | − | ++ | ++ | ++ | ((+)) | Effect at low concentration ([2]; Exp 22): no effect was observed; Inhibition of clonal growth of sparsely seeded cells ([2]; Exp 22): best inhibitor of clonal growth of sparsely seeded cells; Clonal growth [2, 25]: ++; Clonal growth [2, 26]: ++; Clonal growth [2, 27]: ++; Clonal growth [2, 30]: −; Clonal growth [2, 28]: ++; Clonal inhibition by 4-OH-OPB analogues, summary of Exp 22-25 [2, 24]: complete inhibition of growth in sparsely seeded areas |
| CCCCC1(O)C(=O)N(c2ccccc2)N(c2ccc(OC)cc2)C1=O (stereo not shown) [#7, 4-(1-butyl)-4-hydroxy-1-(4-methoxyphenyl)-2-phenyl-3,5-pyrazolidinedione] |  | no | − |  |  |  |  |  | ++ | ++ | ++ | (+) | ++ | ++ | ++ | (+) | ++ | ++ | ++ | ++ | Inhibition of clonal growth of sparsely seeded cells ([2]; Exp 22): smallest effect; also recorded: might have a small similar effect; Clonal growth [2, 25]: ++; Clonal growth [2, 26]: ++; Clonal growth [2, 27]: ++; Clonal growth [2, 30]: (+); Clonal growth [2, 28]: ++; Clonal growth [2, 29]: ++ |
